Measured values taken from patent US5245051A, “Antipsychotic chroman derivatives of benzodioxanmethylamine” (American Home Products Corporation, priority 1992, dated 1993).

Tests used:
[1] = biological target: T1, dopamine D2 receptor (Rattus norvegicus, UniProt P61169); assay: Affinity for dopamine D2 receptor (3H-quinpirole, homogenized rat striatal brain tissue); format: binding
T1 construct: homogenized rat striatal brain tissue; from tissue; host or cells: rat striatal brain tissue homogenate
Procedure: Affinity for the dopamine D2 receptor was established by a modification of the standard experimental test procedure of Seemen and Schaus, European Journal of Pharmacology 203: 105-109, 1991, wherein homogenized rat striatal brain tissue is incubated with ^3 H-quinpirole and various concentrations of test compound, filtered and washed and counted in a Betaplate scintillation counter.

[2] = system: mouse locomotor activity; assay: Reduction of mouse locomotor activity (hypolocomotion); format: in vivo, mouse (male, CF-1); settings: 20 min, ip, horizontal activity counts 10 to 20 minutes after dosing
Procedure: The antipsychotic activity of the compounds of the invention was further established by a determination of the compounds' ability to reduce mouse locomotor activity according to the method of Martin and Bendensky, J. Pharmacol. Exp. Therap. 229: 706-711, 1984, in which mice (male, CF-1, Charles River, 20-30 g) were injected with vehicle or various doses of each drug and locomotor activity was measured for 30 minutes using automated infrared activity monitors (Omnitech-8×8 inch open field) located in a darkened room. ED50 's were calculated from the horizontal activity counts collected from 10 to 20 minutes after dosing using a nonlinear regression analysis with inverse prediction.

[3] = system: dopa accumulation; assay: Inhibition of dopa accumulation in GBL-treated rats (effect on dopamine synthesis, Walters and Roth); format: in vivo, rat (male, Sprague-Dawley); settings: sc, limbic (L) brain tissue, rat, read-out: Dopa Accumulation (% inhib. @ 10 mg/kg, sc)
Procedure: The effect of the compounds of the invention on the synthesis of dopamine was established by the method of Walters and Roth, Naunyn-Schmiedeberg's Arch. Pharmacol. 296:5-14, 1976, in which rats (male, Sprague-Dawley, Charles River, 200-350 g) were administered vehicle or test drug ten minutes prior to the administration of gamma butyrolactone (GBL; 750 mg/kg, ip to inhibit dopaminergic impulse flow) and 20 minutes prior to NSD-1015 (100 mg/kg, ip to prevent the conversion of dopa to dopamine). Thirty minutes after NSD-1015 all rats were decapitated and the nucleus accumbens and the striatum were removed for analysis. Following perchloric acid extraction of the tissue, the extracts were placed over alumina columns to collect and concentrate dopa and other catechols. This eluate was then subjected to HPLC analysis using electrochemical detection to quantify the levels of dopa present. Dopamine autoreceptor agonists, under the conditions used above, inhibit dopa accumulation.

[4] = system: 5-HT1A receptor; settings: (-)-isomer versus dextrorotary isomer; cited from earlier work

T1 sequence (P61169 whole entry): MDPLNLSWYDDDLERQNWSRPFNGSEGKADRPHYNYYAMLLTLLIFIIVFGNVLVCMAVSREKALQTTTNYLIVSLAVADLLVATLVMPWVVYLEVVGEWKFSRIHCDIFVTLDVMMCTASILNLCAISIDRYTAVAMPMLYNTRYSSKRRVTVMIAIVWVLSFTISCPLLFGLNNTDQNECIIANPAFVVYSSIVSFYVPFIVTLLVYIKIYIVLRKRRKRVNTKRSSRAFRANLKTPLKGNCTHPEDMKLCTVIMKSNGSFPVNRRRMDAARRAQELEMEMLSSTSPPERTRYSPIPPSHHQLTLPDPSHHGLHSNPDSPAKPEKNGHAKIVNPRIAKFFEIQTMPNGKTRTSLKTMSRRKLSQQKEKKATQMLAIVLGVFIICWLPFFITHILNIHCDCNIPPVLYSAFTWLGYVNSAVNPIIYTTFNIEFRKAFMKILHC

inhibition at 0.1 µM [1] [%] | Compound | also measured
39 | O=c1ccoc2ccc(OCCCNCC3COc4cc5c(cc4O3)OCO5)cc12 (stereo not drawn) [Example 5, 6-[3-[[(6,7-Dihydro-1,3-dioxolo[4,5-g][1,4]benzodioxin-6-yl)methyl]amino]propoxy]-chromen-4-one] | 
73 | O=c1ccoc2cc(OCCCNC[C@H]3COc4cc5c(cc4O3)OCO5)ccc12 [Example 2, (S)-7-[3-[[(6,7-Dihydro-1,3-dioxolo[4,5-g][1,4]benzodioxin-6-yl)methyl]amino]propoxy]chromen-4-one] | ED50 [2]: 2.74 mg/kg; inhibition at 10 mg/kg [3]: 60.3%
24 | O=C1CCOc2cc(OCCCNCC3COc4cc5c(cc4O3)OCO5)ccc21 (stereo not drawn) [Example 4, 7-[3-[[(6,7-Dihydro-1,3-dioxolo[4,5-g][1,4]benzodioxin-6-yl)methyl]amino]propoxy]-chroman-4-one] | 
43 | O=C1COc2cc(OCCCNCC3COc4cc5c(cc4O3)OCO5)ccc21 (stereo not drawn) [Example 10, 6-[3-[(6,7-Dihydro-1,3-dioxolo[4,5-g][1,4]benzodioxin-6-ylmethyl)amino]propoxy)-benzofuran-3-one] | 
49 | COc1ccc2c(c1)OC(CNCCCOc1ccc3c(=O)ccoc3c1)CO2 (stereo not drawn) [Example 8, 7-[3-[(7-Methoxy-2,3-dihydro-benzo[1,4]dioxin-2-ylmethyl)amino]propoxy]chromen-4-one] | 
24 | c1cc2c(cc1OCCCNCC1COc3cc4c(cc3O1)OCO4)OCCC2 (stereo not drawn) [Example 7, N-[3-(Chroman-7-yloxy)-propyl]-6,7-dihydro-1,3-dioxolo[4,5-g][1,4]benzodioxin-6-methanamine] | 
23 | c1cc2c(cc1OCCCNCC1COc3cc4c(cc3O1)OCO4)CCCO2 (stereo not drawn) [Example 6, N-[3-(Chroman-6-yloxy)-propyl]-6,7-dihydro-1,3-dioxolo[4,5-g][1,4]benzodioxin-6-methanamine] | 
65 | O=c1ccoc2cc(OCCCNCC3COc4cc5c(cc4O3)OCO5)ccc12 (stereo not drawn) [Example 1, 7-[3-[[(6,7-Dihydro-1,3-dioxolo[4,5-g][1,4]benzodioxin-6-yl)methyl]amino]propoxy]chromen-4-one] | 
100 | O=c1ccoc2cc(OCCCNCC3COc4ccc(O)cc4O3)ccc12 (stereo not drawn) [Example 9, 7-[3-[(7-Hydroxy-2,3-dihydro-benzo[1,4]dioxin-2-ylmethyl)amino]propoxy]chromen-4-one] | 
 | O=C1CC2(CCCC2)CC(=O)N1CCCCNCC1COc2ccccc2O1 (single isomer, unassigned; (-)) [(-)-MDL 72832, 8-[4-(1,4-benzodioxan-2-ylmethylamino)butyl]-8-azaspiro[4.5]decane-7,9-dione] | binds times as much as the dextrorotary isomer at the 5-HT1A receptor site [4]: 32 times
